19 molecules from EP4122499A1, “FIBROBLAST ACTIVATION PROTEIN INHIBITORS AND USE THEREOF” (3B Pharmaceuticals GmbH, priority 2021, dated 2023) can be followed below.

Assay [1] addresses T1, Human recombinant FAP (Homo sapiens, UniProt Q12884).
T1 sequence (Q12884 1-760): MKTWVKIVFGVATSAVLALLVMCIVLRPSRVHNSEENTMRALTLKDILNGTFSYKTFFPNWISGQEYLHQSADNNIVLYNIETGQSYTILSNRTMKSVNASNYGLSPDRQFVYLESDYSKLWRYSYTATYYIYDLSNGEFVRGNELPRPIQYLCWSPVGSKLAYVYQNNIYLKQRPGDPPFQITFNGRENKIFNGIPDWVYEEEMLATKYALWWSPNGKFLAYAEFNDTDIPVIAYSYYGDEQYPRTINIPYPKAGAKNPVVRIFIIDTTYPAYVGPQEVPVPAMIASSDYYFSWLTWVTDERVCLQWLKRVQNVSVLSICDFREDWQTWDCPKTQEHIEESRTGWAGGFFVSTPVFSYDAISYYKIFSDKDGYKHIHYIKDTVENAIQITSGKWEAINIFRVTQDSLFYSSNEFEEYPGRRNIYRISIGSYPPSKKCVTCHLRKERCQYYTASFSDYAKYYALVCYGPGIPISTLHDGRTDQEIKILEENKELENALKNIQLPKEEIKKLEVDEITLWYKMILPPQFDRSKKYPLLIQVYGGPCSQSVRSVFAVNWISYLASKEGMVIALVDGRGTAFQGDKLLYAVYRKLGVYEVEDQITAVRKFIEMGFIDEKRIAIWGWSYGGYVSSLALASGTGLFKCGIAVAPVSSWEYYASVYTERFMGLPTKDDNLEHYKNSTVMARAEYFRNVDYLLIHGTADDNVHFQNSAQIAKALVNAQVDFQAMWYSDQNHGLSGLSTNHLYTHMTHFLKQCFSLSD
Nature of the assay: FRET-based FAP protease activity assay (human). Further details: purchased R&D systems 3715-SE. Conditions: FRET-peptide substrate, 37°C; for IC50: read-out: pIC50 (Activity) (converted). It counts as biochemical. How it is done:
(§1) In order to determine the inhibitory activity a FRET-based FAP protease activity assay was established.
25 µL of a 30 µM substrate solution, diluted in assay buffer, was added. […] Four parameter logistic (4PL) curve fitting and pIC50 calculations were performed using ActivityBase software (IDBS).

Assay [2] addresses T2, FAP-expressing human WI-38 fibroblasts (Homo sapiens, UniProt Q12884).
T2 construct: FAP-expressing human WI-38 fibroblasts (ECACC 90020107) were cultured in EMEM; host or cells: WI-38 human fibroblasts
T2 sequence (Q12884 1-760): T1 sequence (Q12884 1-760)
Description: Competitive FACS binding assay (displacement of Cy5-labeled FAP inhibitor 3BP-2935). Conditions: 3 nM Cy5-labeled 3BP-2935, 4°C, 1 hour. As for the experimental part:
In order to determine binding of compounds according to the present invention to FAP-expressing cells, a competitive FACS binding assay was established.
Cells were diluted in FACS buffer to a final concentration of 100.000 cells per ml and 200 µl of the cell suspension are transferred to a u-shaped non-binding 96-well plate (Greiner).
Cell were washed twice with FACS buffer (see above) and resuspended in 200 µl FACS buffer. Cells were analyzed in an Attune NxT flow cytometer (Thermo Fisher Scientific). Median fluorescence intensities (Cy5 channel) was calculated by Attune NxT software and plotted against test compound concentrations. Four parameter logistic (4PL) curve fitting and pIC50 calculations were performed using ActivityBase software.

Assay [3] concerns the target T1, Human recombinant FAP. Description: Surface plasmon resonance assay (Biacore T200, single cycle kinetics). Type of assay: binding. Conditions: SPR, 25°C; for HL [min] (Biacore): half-life; for pKD (Biacore) / Kd: 1:1 Langmuir binding model; for Kd: read-out: pKD (Biacore) (converted). How it is done:
Surface plasmon resonance studies were performed using a Biacore™ T200 SPR system (Cytiva, formerly GE Healthcare). Briefly, polarized light is directed towards a gold-labeled sensor surface, and minimum intensity reflected light is detected. The angle of reflected light changes as molecules bind and dissociate. […] Test compounds are contacted with the loaded surface, and a real-time interaction profile with the FAP ligand is recorded in a sensorgram. In real-time, the association and dissociation of a binding interaction is measured, enabling calculation of association and dissociation rate constants and the corresponding affinity constants. Importantly, a background response is generated due to the difference in the refractive indices of the running and sample buffers, as well as unspecific binding of the test compounds to the flow cell surface. This background is measured and subtracted by running the sample on a control flow cell coated with the same density of capture antibody in the absence of immobilized FAP. Furthermore, baseline drift correction of the binding data is performed, which is caused by slow dissociation of the captured FAP from the immobilized antibody. This drift is measured by injecting running buffer through a flow cell with the antibody and FAP immobilized to the sensor surface.
Biacore™ CM5 sensor chips were used. […] A 150 µL aliquot was transferred into plastic vials and placed into the sample rack of the Biacore™ T200 instrument. Amine Coupling Kit Reagent solutions were transferred into plastic vials and placed into the sample rack: 90 µL of 0.4 M 1-ethyl-3-(3-dimethylaminopropyl)carbodiimide (EDC), and 90 µL of 0.1 M N-hydroxysuccinimide (NHS). A 130 µL aliquot of 1 M ethanolamine-HCl, pH 8.5, was transferred into plastic vials and placed into the sample rack. The Biacore™ liquid system was set-up as follows: Separate bottles containing distilled water (1 L), Running Buffer (500 mL), as well as an empty bottle for waste were placed onto the buffer tray. A preinstalled program for immobilization was used, with an immobilization level of 7000 RU. Immobilization was performed at 25°C. The immobilization procedure of anti-FAP antibodies was performed, as described in the Table 5. Table 5: Immobilization protocol for anti-FAP antibodies used on the CM5 sensor chip.
Human recombinant FAP was diluted in Running Buffer to a final concentration of 20 µg/mL. A 100 µL aliquot of human FAP-Working-Solution was transferred into plastic vials and placed into a sample rack. A 0.5 mM Compound-Stock-Solution was prepared by dissolving each compound in DMSO. For each test compound, Compound-Stock-Solutions were diluted in Running Buffer (HBST) at 500 nM and further diluted with HBST-DMSO Buffer (0.1% DMSO). SPR binding analyses for binary complexes were performed in SCK mode at 25°C. Following three SCK measurements, a baseline drift was assessed by injecting running buffer through a flow cell, with the antibody and FAP immobilized to the sensor surface. Table 6: Protocol for assessing the binding kinetics.
For each test compound, SPR raw data in the form of resonance units (RU) were plotted as sensorgrams using the Biacore™ T200 control software. The signal from the blank sensorgram was subtracted from that of the test compound sensorgram (blank corrected). The blank corrected sensorgram was corrected for baseline drift by subtracting the sensorgram of a SCK run without the test compound (running buffer only). The association rate (kon), dissociation rate (koff), dissociation constant (KD), and t1/2 were calculated from Blank-normalized SPR data using the 1:1 Langmuir binding model from the Biacore™ T200 evaluation software. Raw data and fit results were imported as text files in IDBS. The pKD value (negative decadic logarithm of dissociation constant) was calculated in the IDBS excel template.

In the next assay the target is T3, Recombinant mouse FAP (Mus musculus, UniProt P97321).
T3 construct: purchased R&D systems 8647-SE
T3 sequence (P97321 1-761): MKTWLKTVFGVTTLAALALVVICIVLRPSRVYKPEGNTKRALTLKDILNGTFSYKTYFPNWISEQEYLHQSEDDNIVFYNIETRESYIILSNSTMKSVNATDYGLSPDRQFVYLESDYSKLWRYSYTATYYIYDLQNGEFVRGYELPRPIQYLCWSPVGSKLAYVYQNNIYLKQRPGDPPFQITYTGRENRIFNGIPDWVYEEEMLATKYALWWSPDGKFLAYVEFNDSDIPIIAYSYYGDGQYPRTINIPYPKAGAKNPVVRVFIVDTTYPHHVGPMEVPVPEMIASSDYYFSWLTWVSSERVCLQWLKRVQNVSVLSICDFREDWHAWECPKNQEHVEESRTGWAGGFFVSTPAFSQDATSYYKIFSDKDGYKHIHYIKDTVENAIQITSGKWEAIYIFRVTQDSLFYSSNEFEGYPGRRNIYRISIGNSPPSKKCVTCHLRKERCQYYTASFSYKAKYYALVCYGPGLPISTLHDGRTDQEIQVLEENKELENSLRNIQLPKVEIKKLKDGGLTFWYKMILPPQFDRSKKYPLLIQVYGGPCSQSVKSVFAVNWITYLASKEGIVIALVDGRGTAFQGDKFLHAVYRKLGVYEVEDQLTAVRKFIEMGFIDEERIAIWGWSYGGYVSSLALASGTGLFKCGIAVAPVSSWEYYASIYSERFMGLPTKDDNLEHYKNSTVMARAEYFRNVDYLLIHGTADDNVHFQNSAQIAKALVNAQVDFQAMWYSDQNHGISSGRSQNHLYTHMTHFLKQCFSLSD
Nature of the assay: FRET-based FAP protease activity assay (mouse). Type of assay: biochemical. As to conditions: FRET-peptide substrate, 37°C. How it is done:
as §1
25 µL of a 30 µM substrate solution, diluted in assay buffer, was added. […] Four parameter logistic (4PL) curve fitting and pIC50 calculations were performed using ActivityBase software.

The next assay concerns the target T4, Recombinant human DPP4 (Homo sapiens, UniProt P27487).
T4 construct: purchased R&D systems 9168-SE
Nature of the assay: DPP4 protease activity assay. As to conditions: 20 µM GP-AMC substrate; read-out: pIC50 (DPP4) (converted). It counts as biochemical. How it is done:
The PREP activity assay was performed using the FACS buffer (PBS including 1% FBS, Sigma-Aldrich, Cat# D8537). […] The DPP4 activity assay was performed in DPP assay buffer (25 mM Tris, pH 8.0).
Four parameter logistic (4PL) curve fitting and pIC50 calculations were performed using ActivityBase software.

SMILES strings stand for the structures.

T4 sequence (P27487 whole entry): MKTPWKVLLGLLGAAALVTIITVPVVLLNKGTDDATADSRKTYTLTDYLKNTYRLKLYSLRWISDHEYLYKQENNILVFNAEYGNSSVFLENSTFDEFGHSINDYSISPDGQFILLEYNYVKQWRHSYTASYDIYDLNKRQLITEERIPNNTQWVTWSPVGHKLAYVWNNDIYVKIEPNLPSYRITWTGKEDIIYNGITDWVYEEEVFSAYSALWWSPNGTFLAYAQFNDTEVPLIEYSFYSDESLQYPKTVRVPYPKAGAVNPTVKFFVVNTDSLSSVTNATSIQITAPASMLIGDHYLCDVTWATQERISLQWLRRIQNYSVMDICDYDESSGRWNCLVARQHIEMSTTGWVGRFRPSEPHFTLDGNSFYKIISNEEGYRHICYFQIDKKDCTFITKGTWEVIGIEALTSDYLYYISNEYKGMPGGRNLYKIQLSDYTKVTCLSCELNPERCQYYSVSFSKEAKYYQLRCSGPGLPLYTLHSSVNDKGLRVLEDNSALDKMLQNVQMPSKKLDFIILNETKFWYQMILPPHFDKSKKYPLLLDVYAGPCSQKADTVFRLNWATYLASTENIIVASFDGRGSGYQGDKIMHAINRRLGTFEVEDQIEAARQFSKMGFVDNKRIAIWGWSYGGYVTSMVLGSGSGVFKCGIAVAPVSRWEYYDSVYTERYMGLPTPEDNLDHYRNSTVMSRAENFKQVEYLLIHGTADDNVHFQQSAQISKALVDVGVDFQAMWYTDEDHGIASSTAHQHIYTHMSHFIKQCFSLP

For the molecule `CC(C)(C)OC(=O)N1CC[N+]([O-])(CCCOc2ccc3c(c2)c(C(=O)NCC(=O)N2CC(F)(F)C[C@H]2C#N)cc[n+]3[O-])CC1`, the values for the IC50 (at Human recombinant FAP [1]; in assay [2]) were 2.51 nM and 10 nM, respectively.
In the case of `N#C[C@@H]1CC(F)(F)CN1C(=O)CNC(=O)c1ccnc2ccccc12`, the “HL [min] (Biacore)” value at Human recombinant FAP [3] amounted to 10.4 min.
With `Cc1cccc2c(C(=O)NCC(=O)N3CC(F)(F)C[C@H]3C#N)ccnc12`, the values for the IC50 (at Human recombinant FAP [1]; in assay [2]) were 12.6 nM and 25.1 nM, respectively.
Taken in the same sequence, the figures for `CC(C)(C)OC(=O)N1CCN(CCCOc2ccc3c(c2)c(C(=O)NCC(=O)N2CC(F)(F)C[C@H]2C#N)cc[n+]3[O-])CC1` were 2.51 nM and 10 nM.
In the case of `O=C(O)CN1CCN(CC(=O)O)CCN(CC(=O)NCCCS(=O)(=O)c2ccc(-c3ccc4nccc(C(=O)NCC(=O)N5CCC[C@H]5C(=O)c5nc6ccccc6o5)c4c3)cc2)CCN(CC(=O)O)CC1` [drawing 317], at Human recombinant FAP [3], the “pKD (Biacore)” value is given as more than 11 and the “HL [min] (Biacore)” value is reported as more than 500 min. Moreover, the “pIC50 (mouseFAP)” value on Recombinant mouse FAP is reported as 8.6.
Consider `CC(C)(C)OC(=O)N1CCN(CCCOc2ccc3nccc(C(=O)NCC(=O)N4CC(F)(F)C[C@H]4C#N)c3c2)CC1`, for which the results for the IC50 (on Human recombinant FAP [1]; in assay [2]) were 1.58 nM and 3.98 nM, respectively.
Turning to `N#C[C@@H]1CC(F)(F)CN1C(=O)CNC(=O)c1ccnc2ccc(-c3ccc(C(=O)NCCN4CCN(C(=O)CN5CCN(CC(=O)O)CCN(CC(=O)O)CCN(CC(=O)O)CC5)CC4)nc3)cc12`, on Human recombinant FAP [3], the “pKD (Biacore)” value is on record as more than 11 and the “HL [min] (Biacore)” value is reported as more than 500 min.
In the case of `CC(C)(C)OC(=O)N1CC[N+]([O-])(CCCOc2ccc3nccc(C(=O)NCC(=O)N4CC(F)(F)C[C@H]4C#N)c3c2)CC1`, the IC50 was 1 nM at Human recombinant FAP [1] and 2.51 nM in assay [2].
On to `O=C(NCC(=O)N1CCC[C@H]1C(=O)CO)c1ccnc2ccccc12`, for which the “HL [min] (Biacore)” value at Human recombinant FAP [3] is listed as 3.1 min. Further, the “pIC50 (mouseFAP)” value at Recombinant mouse FAP was 8.2.
For `N#C[C@@H]1CCCN1C(=O)CNC(=O)c1ccnc2ccc(-n3cc(C(=O)NCCCNC(=O)CN4CCN(CC(=O)O)CCN(CC(=O)O)CCN(CC(=O)O)CC4)nn3)cc12`, on Human recombinant FAP [3], the “HL [min] (Biacore)” value is reported as 95 min.
Turning to `COc1cccc2c(C(=O)NCC(=O)N3CC(F)(F)C[C@H]3C#N)ccnc12`, the IC50 on Human recombinant FAP [1] is 6.31 nM; in assay [2], 20 nM.
Regarding `N#C[C@@H]1CCCN1C(=O)CNC(=O)c1ccnc2ccccc12`, the IC50 at Recombinant human DPP4 was more than 1000 nM.
On to `O=C(NCC(=O)N1CCC[C@H]1B(O)O)c1ccnc2ccccc12`, for which the IC50 at Human recombinant FAP [1] is 1.26 nM; in assay [2], 3.16 nM.
As to `N#C[C@@H]1CC(F)(F)CN1C(=O)CNC(=O)c1ccnc2c(OCC3CC3)cccc12`, the IC50 was 3.16 nM at Human recombinant FAP [1] and 15.8 nM in assay [2].
As for `N#C[C@@H]1CC(F)(F)CN1C(=O)CNC(=O)c1ccnc2c(OCCCCc3ccccc3)cccc12`, the “pIC50 (Activity)” value on Human recombinant FAP [1] is 8.2. Also, the “pIC50 (FACS)” value in assay [2] was 7.7.
As to `CCOc1cccc2c(C(=O)NCC(=O)N3CC(F)(F)C[C@H]3C#N)ccnc12`, the IC50 is 3.16 nM on Human recombinant FAP [1] and 20 nM in assay [2].
In the case of `N#C[C@@H]1CCCN1C(=O)CNC(=O)c1ccnc2ccc(-c3ccc(C(=O)O)cc3)cc12`, the IC50 on Human recombinant FAP [1] was 1.58 nM; on Recombinant human DPP4, more than 1000 nM; in assay [2], 2.51 nM. Moreover, the Kd at Human recombinant FAP [3] is 0.2 nM. For the same molecule, the “HL [min] (Biacore)” value at Human recombinant FAP [3] is on record as 11 min.
As for `CS(=O)(=O)c1ccc(-c2ccc3nccc(C(=O)NCC(=O)N4CC(F)(F)C[C@H]4C#N)c3c2)c(CO)c1`, the IC50 at Human recombinant FAP [1] is 0.501 nM. At Human recombinant FAP [3], the Kd was less than 0.01 nM and the “HL [min] (Biacore)” value was more than 500 min. For the same molecule, the IC50 in assay [2] is 2 nM.
Take `Cn1ncnc1C(=O)[C@@H]1CCCN1C(=O)CNC(=O)c1ccnc2ccccc12`: the values for the IC50 (at Human recombinant FAP [1]; in assay [2]) were 316 nM and more than 1000 nM, respectively.
